Laboratory results published in patent US7211572B2 (Japan Tobacco Inc., priority 2003, dated 2007).
Counter-ions that a name gives are not always drawn.

molecular target: T1, HIV integrase (Human immunodeficiency virus type 1 group M subtype B, UniProt P12497, F1332H); assay: Determination of enzyme (HIV integrase) inhibitory activity; assay type: biochemical; settings: recombinant HIV integrase (F185H), strand transfer ELISA, absorbance at 450 nm
T1 construct: HIV integrase full length gene; made in house; host or cells: Escherichia coli BL21(DE3), plasmid pET21a-INH
How it was run: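 Full-length integrase with F185H, expressed in E. coli and purified, was reacted for 60 min at 37 °C with compound and biotinylated donor DNA bound to streptavidin plates. Target DNA was added for 10 min, then anti-digoxigenin-peroxidase detection at A450; IC50 from % inhibition versus enzyme-free blank.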

Row | SMILES | IC50 [nM]
1 | CCC(=O)Nc1cn2ccn(Cc3cccc(Cl)c3)c(=O)c2c(O)c1=O [Example 242, N-[2-(3-chlorobenzyl)-9-hydroxy-1,8-dioxo-1,8-dihydro-2H-pyrido[1,2-a]pyrazin-7-yl]propionamide] | < 10
2 | O=C(Cc1ccccc1)Nc1cn2ccn(Cc3cccc(Cl)c3)c(=O)c2c(O)c1=O [Example 243, N-[2-(3-chlorobenzyl)-9-hydroxy-1,8-dioxo-1,8-dihydro-2H-pyrido[1,2-a]pyrazin-7-yl]-2-phenylacetamide] | < 10
3 | CC(=O)c1cn2ccn(Cc3ccc(F)c(Cl)c3)c(=O)c2c(O)c1=O [Example 244, 7-acetyl-2-(3-chloro-4-fluorobenzyl)-9-hydroxy-2H-pyrido[1,2-a]pyrazine-1,8-dione hydrochloride] | < 10
4 | CSc1cn2ccn(Cc3cccc(Cl)c3)c(=O)c2c(O)c1=O [Example 245, 2-(3-chlorobenzyl)-9-hydroxy-7-methylsulfanyl-2H-pyrido[1,2-a]pyrazine-1,8-dione] | 10 to 100
5 | CS(=O)(=O)c1cn2ccn(Cc3cccc(Cl)c3)c(=O)c2c(O)c1=O [Example 246, 2-(3-chlorobenzyl)-9-hydroxy-7-methanesulfonyl-2H-pyrido[1,2-a]pyrazine-1,8-dione] | 10 to 100
6 | C[S+]([O-])c1cn2ccn(Cc3cccc(Cl)c3)c(=O)c2c(O)c1=O (stereo not drawn) [Example 247, 2-(3-chlorobenzyl)-9-hydroxy-7-methanesulfinyl-2H-pyrido[1,2-a]pyrazine-1,8-dione] | 10 to 100
7 | Cc1cnc(-c2cn3c(c(O)c2=O)C(=O)N(Cc2cccc(Cl)c2)CC3)s1 [Example 248, 2-(3-chlorobenzyl)-9-hydroxy-7-(5-methylthiazol-2-yl)-3,4-dihydro-2H-pyrido[1,2-a]pyrazine-1,8-dione] | < 10
8 | O=C1c2c(O)c(=O)c(-c3nccs3)cn2CCN1Cc1ccc(Cl)c(Cl)c1 [Example 249, 2-(3,4-dichlorobenzyl)-9-hydroxy-7-(thiazol-2-yl)-3,4-dihydro-2H-pyrido[1,2-a]pyrazine-1,8-dione] | < 10
9 | O=c1ccn2ccn(Cc3ccc(F)cc3)c(=O)c2c1O [Example 250, 2-(4-fluorobenzyl)-9-hydroxy-2H-pyrido[1,2-a]pyrazine-1,8-dione hydrochloride] | 10 to 100
10 | CC(C)(C)C(=O)c1cn2ccn(Cc3ccc(F)cc3)c(=O)c2c(O)c1=O [Example 251, 7-(2,2-dimethylpropionyl)-2-(4-fluorobenzyl)-9-hydroxy-2H-pyrido[1,2-a]pyrazine-1,8-dione hydrochloride] | < 10
11 | O=c1c(-c2nccs2)cn2ccn(Cc3ccc(F)cc3)c(=O)c2c1O [Example 252, 2-(4-fluorobenzyl)-9-hydroxy-7-(thiazol-2-yl)-2H-pyrido[1,2-a]pyrazine-1,8-dione hydrochloride] | < 10
12 | CNC(=O)c1cn2ccn(Cc3ccc(F)cc3)c(=O)c2c(O)c1=O [Example 253, N-methyl-2-(4-fluorobenzyl)-9-hydroxy-1,8-dioxo-1,8-dihydro-2H-pyrido[1,2-a]pyrazine-7-carboxamide] | < 10
13 | CC(C)(C)C(=O)c1cn2ccn(CCCc3c(F)cccc3Cl)c(=O)c2c(O)c1=O [Example 254, 2-[3-(2-chloro-6-fluorophenyl)propyl]-7-(2,2-dimethylpropionyl)-9-hydroxy-2H-pyrido[1,2-a]pyrazine-1,8-dione hydrochloride] | < 10
14 | Cc1csc(-c2cn3c(c(O)c2=O)C(=O)N(Cc2cccc(Cl)c2)CC3)n1 [Example 255, 2-(3-chlorobenzyl)-9-hydroxy-7-(4-methylthiazol-2-yl)-3,4-dihydro-2H-pyrido[1,2-a]pyrazine-1,8-dione] | < 10
15 | CCCC(=O)Nc1cn2ccn(Cc3cccc(Cl)c3)c(=O)c2c(O)c1=O [Example 256, N-[2-(3-chlorobenzyl)-9-hydroxy-1,8-dioxo-1,8-dihydro-2H-pyrido[1,2-a]pyrazin-7-yl]butyramide] | < 10
16 | O=C(Nc1cn2ccn(Cc3cccc(Cl)c3)c(=O)c2c(O)c1=O)c1ccccc1 [Example 257, N-[2-(3-chlorobenzyl)-9-hydroxy-1,8-dioxo-1,8-dihydro-2H-pyrido[1,2-a]pyrazin-7-yl]benzamide] | < 10
17 | O=C(CCc1ccccc1)Nc1cn2ccn(Cc3cccc(Cl)c3)c(=O)c2c(O)c1=O [Example 258, N-[2-(3-chlorobenzyl)-9-hydroxy-1,8-dioxo-1,8-dihydro-2H-pyrido[1,2-a]pyrazin-7-yl]-3-phenylpropionamide] | < 10
18 | CC(=O)N(C)c1cn2ccn(Cc3cccc(Cl)c3)c(=O)c2c(O)c1=O [Example 259, N-[2-(3-chlorobenzyl)-9-hydroxy-1,8-dioxo-1,8-dihydro-2H-pyrido[1,2-a]pyrazin-7-yl]-N-methylacetamide] | < 10

Row | SMILES | IC50 [nM]
19 | COCC(=O)Nc1cn2ccn(Cc3cccc(Cl)c3)c(=O)c2c(O)c1=O [Example 260, N-[2-(3-chlorobenzyl)-9-hydroxy-1,8-dioxo-1,8-dihydro-2H-pyrido[1,2-a]pyrazin-7-yl]-2-methoxyacetamide] | < 10
20 | COC(=O)c1cn2c(c(O)c1=O)C(=O)N(Cc1cccc(Cl)c1)CC2 [Example 261, methyl 2-(3-chlorobenzyl)-9-hydroxy-1,8-dioxo-1,3,4,8-tetrahydro-2H-pyrido[1,2-a]pyrazine-7-carboxylate] | 10 to 100
21 | CN(C)C(=O)Nc1cn2ccn(Cc3cccc(Cl)c3)c(=O)c2c(O)c1=O [Example 262, 3-[2-(3-chlorobenzyl)-9-hydroxy-1,8-dioxo-1,8-dihydro-2H-pyrido[1,2-a]pyrazin-7-yl]-1,1-dimethylurea] | < 10
22 | COC(=O)Nc1cn2ccn(Cc3cccc(Cl)c3)c(=O)c2c(O)c1=O [Example 263, methyl[2-(3-chlorobenzyl)-9-hydroxy-1,8-dioxo-1,8-dihydro-2H-pyrido[1,2-a]pyrazin-7-yl]carbamate] | < 10
23 | O=C1c2c(O)c(=O)c(-c3nccs3)cn2CCN1CCCc1c(F)cccc1Cl [Example 264, 2-[3-(2-chloro-6-fluorophenyl)propyl]-9-hydroxy-7-(thiazol-2-yl)-3,4-dihydro-2H-pyrido[1,2-a]pyrazine-1,8-dione] | < 10
24 | CC(=O)C(=O)Nc1cn2ccn(Cc3cccc(Cl)c3)c(=O)c2c(O)c1=O [Example 265, N-[2-(3-chlorobenzyl)-9-hydroxy-1,8-dioxo-1,8-dihydro-2H-pyrido[1,2-a]pyrazin-7-yl]-2-oxopropionamide] | < 10
25 | O=C(NCc1ccccc1)c1cn2c(c(O)c1=O)C(=O)N(Cc1cccc(Cl)c1)CC2 [Example 266, N-benzyl-2-(3-chlorobenzyl)-9-hydroxy-1,8-dioxo-1,3,4,8-tetrahydro-2H-pyrido[1,2-a]pyrazine-7-carboxamide] | < 10
26 | O=C1c2c(O)c(=O)c(-c3cc[nH]n3)cn2CCN1Cc1cccc(Cl)c1 [Example 267, 2-(3-chlorobenzyl)-9-hydroxy-7-(1H-pyrazol-3-yl)-3,4-dihydro-2H-pyrido[1,2-a]pyrazine-1,8-dione] | 10 to 100
27 | O=C1c2c(O)c(=O)c(-c3ccncn3)cn2CCN1Cc1cccc(Cl)c1 [Example 268, 2-(3-chlorobenzyl)-9-hydroxy-7-(pyrimidin-4-yl)-3,4-dihydro-2H-pyrido[1,2-a]pyrazine-1,8-dione] | < 10
28 | O=C(NCc1cccc2ccccc12)c1cn2c(c(O)c1=O)C(=O)N(Cc1cccc(Cl)c1)CC2 [Example 269, N-(naphthalen-1-ylmethyl)-2-(3-chlorobenzyl)-9-hydroxy-1,8-dioxo-1,3,4,8-tetrahydro-2H-pyrido [1,2-a]pyrazine-7-carboxamide] | < 10
29 | O=C(NC(c1ccccc1)c1ccccc1)c1cn2c(c(O)c1=O)C(=O)N(Cc1cccc(Cl)c1)CC2 [Example 270, N-benzhydryl-2-(3-chlorobenzyl)-9-hydroxy-1,8-dioxo-1,3,4,8-tetrahydro-2H-pyrido[1,2-a]pyrazine-7-carboxamide] | 10 to 100
30 | O=C1c2c(O)c(=O)c(-c3ncccn3)cn2CCN1Cc1cccc(Cl)c1 [Example 271, 2-(3-chlorobenzyl)-9-hydroxy-7-(pyrimidin-2-yl)-3,4-dihydro-2H-pyrido[1,2-a]pyrazine-1,8-dione hydrochloride] | 10 to 100
31 | CC(C)(C(=O)c1cn2c(c(O)c1=O)C(=O)N(Cc1cccc(Cl)c1)CC2)c1ccccc1 [Example 272, 2-(3-chlorobenzyl)-9-hydroxy-7-(2-methyl-2-phenylpropionyl)-3,4-dihydro-2H-pyrido[1,2-a]pyrazine-1,8-dione] | 10 to 100
32 | CC(C)(C)c1ccc(CNC(=O)c2cn3c(c(O)c2=O)C(=O)N(Cc2cccc(Cl)c2)CC3)cc1 [Example 273, N-(4-tert-butylbenzyl)-2-(3-chlorobenzyl)-9-hydroxy-1,8-dioxo-1,3,4,8-tetrahydro-2H-pyrido [1,2-a] pyrazine-7-carboxamide] | 10 to 100
33 | O=C(Nc1cn2ccn(Cc3cccc(Cl)c3)c(=O)c2c(O)c1=O)C1CCCC1 [Example 274, N-[2-(3-chlorobenzyl)-9-hydroxy-1,8-dioxo-1,8-dihydro-2H-pyrido[1,2-a]pyrazin-7-yl)cyclopentanecarboxamide] | 10 to 100
34 | O=C(Cc1ccc(F)cc1)Nc1cn2ccn(Cc3cccc(Cl)c3)c(=O)c2c(O)c1=O [Example 275, N-[2-(3-chlorobenzyl)-9-hydroxy-1,8-dioxo-1,8-dihydro-2H-pyrido[1,2-a]pyrazin-7-yl]-2-(4-fluorophenyl)acetamide] | < 10
35 | CC(C)(C)C(=O)Nc1cn2ccn(Cc3cccc(Cl)c3)c(=O)c2c(O)c1=O [Example 276, N-[2-(3-chlorobenzyl)-9-hydroxy-1,8-dioxo-1,8-dihydro-2H-pyrido[1,2-a]pyrazin-7-yl]-2,2-dimethylpropionamide] | < 10
36 | CC(C)(C(=O)Nc1cn2ccn(Cc3cccc(Cl)c3)c(=O)c2c(O)c1=O)c1ccccc1 [Example 277, N-[2-(3-chlorobenzyl)-9-hydroxy-1,8-dioxo-1,8-dihydro-2H-pyrido[1,2-a]pyrazin-7-yl]-2-phenylisobutyramide] | < 10
